Read-outs that look alike come from different tables or passages of the source.
What was measured:
[1] = test system: Walker 256; conditions: result in words; cited from earlier work
[2] = test system: lymphoid leukemia (L 1210); conditions: result in words; cited from earlier work
[3] = acute intraperitoneal toxicity in mice; cited from earlier work
[4] = test system: Sarcoma 180; conditions: result in words; cited from earlier work
[5] = test system: Adenocarcinoma 755; conditions: result in words; cited from earlier work
[6] = test system: ventral prostate; conditions: as reported in the literature; cited from earlier work
[7] = test system: Walker carcinosarcoma 256; assay: Walker carcinosarcoma 256 test; format: in vivo, Sprague Dawley rats; conditions: 5×250 mg/kg i.p.
In short: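 Sprague Dawley rats implanted s.c. with 2-4 mm tumour pieces; compound given i.p. daily for 5 days from the day after implantation, animals killed on day 9. Tumour inhibition is the tumour weight difference versus controls as per cent of control weight; lethality given as deaths/animals used.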

[8] = test system: Lymphatic leukemia L 1210; assay: Lymphatic leukemia L 1210 test; format: in vivo, CDF1 (C3H×DBA/2)F1 mice; conditions: for effect on L 1210: result in words, dose not given
In short: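 CDF1 (C3H×DBA/2)F1 mice implanted i.p. with 10^5 L1210 cells; single i.p. dose on the day after implantation. Survival time of treated animals expressed as percentage of controls (T/C), with weight change versus controls up to day 5. Day-5 mortality in treated animals must not exceed 35%.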

[9] = test system: Ehrlich ascites tumour, ELD hyperdiploid (46 chromosomes); assay: Ehrlich ascites tumour test (LD50, ED50, therapeutic index); format: in vivo, SPF NMRI mice; conditions: for anti-tumor activity: additional compounds, result in words
In short: (§1)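 SPF NMRI mice implanted i.p. with 2 × 10^6 Ehrlich ascites (ELD hyperdiploid) cells and given a single i.p. dose the next day; killed on day 8. ED50 = dose halving tumour weight versus controls, LD50 = dose lethal to 50%; T.I. = LD50/ED50.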

[10] = as above; format: in vivo, SPF NMRI mice; conditions: mouse, in vivo, ip; one injection i.p., mice; dose causing 50 percent lethality
In short: as §1

[11] = in vivo; parameters: species or system SPF Wistar rats; conditions: rat, in vivo, ip; one injection i.p., rats; dose causing 50 percent lethality
In short: (§2)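 SPF Wistar rats were implanted i.p. with 5 × 10^6 AH 130 cells and given one i.p. dose the next day. On day 8 they were killed and tumour weights were compared with controls. ED50 is the dose halving tumour size, LD50 the 50% lethal dose, and T.I. is LD50/ED50.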

[12] = test system: Hepatoma AH 130; assay: animal or person; parameters: species or system SPF Wistar rats; conditions: for anti-tumor activity: additional compounds, result in words
In short: as §2

[13] = test system: ventral prostate; assay: Androgenic effect in castrated male rats; format: in vivo; conditions: subcutanous and intraperitoneal administration, 7 days
Method: The androgenic and estrogenic activities, as described below, are determined with established methods (see e.g. Dorfman, R.: Methods in Hormone Research, vol. II, Acad. Press, New York and London 1962, pp. 93 and 275).
The androgenic effect is assayed in castrated male rats. Beginning two weeks after castration the animals are given one daily injection of the compound for 7 days. The weight of the ventral prostate is determined on the 8th day.

[14] = Progestational activity in the Clanberg test; format: in vivo; conditions: standard scale of McPhail
[15] = Thymolytic effect according to A. C. Hilger (assay 8); conditions: in vivo
Excerpt: Thymolytic effect according to A. C.

For `CC(C)COC(=O)N(CCCl)N=O` [(CH3)2 CHCH2 --], the “activity against Walker 256” value [1] is given as “inactive”, the “activity against lymphoid leukemia (L 1210)” value [2] is given as “inactive” and the LD50 [3] is given as 7 mg/kg.

In the case of `CCOC(=O)N(CCCl)N=O` [C2 H5 --], the “activity against lymphoid leukemia (L 1210)” value [2] is given as “inactive”, the “activity against Sarcoma 180” value [4] is given as “inactive” and the LD50 [3] is given as 2 mg/kg. For the same compound, the “activity against Adenocarcinoma 755” value [5] was “inactive”.

In the case of `C[C@]12CC[C@H](O)CC1=CC[C@@H]1[C@@H]2CC[C@]2(C)C(=O)CC[C@@H]12` [dehydroepiandrosterone, androst-5-en-3β-ol-17-one], the “androgenic effect compared with testosterone” value [6] is listed as “weaker androgenic effect”.

With `C[C@]12CC[C@H](OC(=O)N(CCCl)N=O)CC1=CC[C@@H]1[C@@H]2CC[C@]2(C)C(=O)CC[C@@H]12` [dehydroepiandrosterone-3β-N-(2-chloroethyl)-N-nitroso carbamate] the Tumour inhibition % [7] was 66%, the Lethality ([7]; died/used animals) was 0/16 and the Mortality ([8]; 1×500 mg/kg i.p.) was 0/40. The Effect % ([8]; 1×500 mg/kg i.p., survival time as percentage of control) was 143%, the Weight change v ([8]; 1×500 mg/kg i.p., vs control up to the 5th day) was -2.5 g and the “T.I. (LD50/ED50)” value ([9]; Ehrlich ascites, mice, i.p.) was > 102. The ED50 ([9]; Mus musculus, Ehrlich, ip, one injection i.p. day after implantation, dose causing 50 percent reduction of tumour size, read-out: ED50) was 98 mg/kg, the LD50 [10] was > 1000 mg/kg and the LD50 [11] was > 1000 mg/kg. The ED50 ([12]; Rattus norvegicus, ip, 192 h, one injection i.p. day after implantation, dose causing 50 percent reduction of tumour size) was 0.4 mg/kg and the “androgenic effect compared with testosterone” value [13] was “somewhat weaker androgenic effect”.

With `C#C[C@]1(OC(C)=O)CC[C@H]2[C@@H]3CCC4=C[C@@H](OC(=O)N(C(=O)N(CCCl)N=O)C5CCCCC5)CC[C@@H]4[C@H]3CC[C@@]21C` [ethynodiol-17β-acetate-3β-/N^2-cyclohexyl-N^4-(2-chloroethyl)-N^4-nitroso allophanate/] the anti-tumor activity [9] was “exhibit anti-tumor activity”, the anti-tumor activity [12] was “exhibit anti-tumor activity” and the “progestational activity compared with ethynodiol-3,17-diacetate” value [14] was “about half that of ethynodiol-3,17 -diacetate”.

With `C#C[C@]1(OC(C)=O)CC[C@H]2[C@@H]3CCC4=C[C@@H](OC(=O)N(CCCl)N=O)CC[C@@H]4[C@H]3CC[C@@]21C` [ethynodiol-17β-acetate-3β-N-(2-chloroethyl)-N-nitroso carbamate] the anti-tumor activity [9] was “exhibit anti-tumor activity”, the anti-tumor activity [12] was “exhibit anti-tumor activity” and the “progestational activity compared with ethynodiol-3,17-diacetate” value [14] was “about half that of ethynodiol-3,17 -diacetate”.

In the case of `C[C@]12C=CC(=O)C=C1CC[C@@H]1[C@@H]2[C@@H](O)C[C@@]2(C)[C@H]1CC[C@]2(O)C(=O)COC(=O)N(CCCl)C(=O)N(CCCl)N=O` [prednisolone-21-/N^2,N^4-bis (2-chloroethyl)-N^4-nitroso allophanate/], the “effect on L 1210” value [8] is reported as “show a significant effect”, the anti-tumor activity [9] is reported as “exhibit anti-tumor activity” and the anti-tumor activity [12] is reported as “exhibit anti-tumor activity”. The “thymolytic activity compared with prednisolone acetate” value [15] was “about the same activity as prednisolone acetate”.

In the case of `C[C@]12C=CC(=O)C=C1CC[C@@H]1[C@@H]2[C@@H](O)C[C@@]2(C)[C@H]1CC[C@]2(O)C(=O)COC(=O)N(CCCl)N=O` [prednisolone-21-N-(2-chloroethyl)-N-nitroso carbamate], the “effect on L 1210” value [8] is reported as “show a significant effect”, the anti-tumor activity [9] is reported as “exhibit anti-tumor activity” and the anti-tumor activity [12] is reported as “exhibit anti-tumor activity”. The “thymolytic activity compared with prednisolone acetate” value [15] was “about the same activity as prednisolone acetate”.

— patent US3963707A, “Novel N-nitroso compounds, compositions containing such compounds, processes for their preparation and methods of treatment therewith, and novel intermediates” (Aktiebolaget Leo, priority 1973, dated 1976)
